For the data set, the system named is rodent lifetime carcinogenesis bioassay, tumor incidence TD50. Put plainly: chronic cancer bioassays in animals – CPDB, compiled studies (AID 1745844).

The source of these data is PubChem BioAssay AID1745844 (Carcinogenic Potency Database (CPDB), 2022).

Each structure is given as a SMILES string. Active and inactive are the calls of the source. The rule behind the calls is not given here.

Consider `CCCCCCCCCCCCN(C)N=O`, for which the TD50 (as a rule, the dose at which the toxic effect under study appears in half of the subjects) (rat, strain Fischer 344, females, by gavage, site: lung, lesion: one or several types, types not named, dosed 30 weeks, study length 65 weeks) came out at 1.32 mg/kg/day; the TD50 (rat, strain Fischer 344, females, by gavage, site: urinary bladder, lesion: one or several types, types not named, dosed 30 weeks, study length 65 weeks) is 0.656 mg/kg/day; the TD50 (rat, strain Fischer 344, males, by gavage, site: all sites, lesion: leukemia, dosed 30 weeks, study length 112 weeks) is 0.97 mg/kg/day; the TD50 (rat, strain Fischer 344, males, by gavage, site: forestomach, lesion: carcinoma, dosed 30 weeks, study length 112 weeks) is 5.07 mg/kg/day; the TD50 (rat, strain Fischer 344, males, by gavage, site: forestomach, lesion: papilloma, dosed 30 weeks, study length 112 weeks) was 13.9 mg/kg/day; the TD50 (rat, strain Fischer 344, males, by gavage, site: liver, lesion: hepatocellular carcinoma, dosed 30 weeks, study length 112 weeks) was 8.98 mg/kg/day. Further, the TD50 runs as follows: (rat, strain Fischer 344, males, by gavage, site: lung, lesion: adenocarcinoma, dosed 30 weeks, study length 112 weeks) 6.54 mg/kg/day; (rat, strain Fischer 344, males, by gavage, site: lung, lesion: adenoma, dosed 30 weeks, study length 112 weeks) 28.5 mg/kg/day; (rat, strain Fischer 344, males, by gavage, site: pancreatic islets, lesion: islet-cell carcinoma, dosed 30 weeks, study length 112 weeks) 2.75 mg/kg/day; (rat, strain Fischer 344, males, by gavage, site: urinary bladder, lesion: transitional-cell carcinoma, dosed 30 weeks, study length 112 weeks) 0.487 mg/kg/day. The carcinogen call by setting is: (rat, strain Fischer 344, males, by gavage, site: any site (literature study), lesion: several types, types named in the paper, dosed 30 weeks, study length 112 weeks) “positive”; (rat, strain Fischer 344, males, by gavage, site: urinary bladder, lesion: transitional-cell carcinoma, dosed 28 weeks, study length 66 weeks) “positive”.

Take `NC(=S)NNC(N)=S`: the TD50 was 4350 mg/kg/day (mouse, strain B6C3F1, females, in feed, site: any site (literature study), lesion: several types, types named in the paper, dosed 94 weeks, study length 94 weeks); 5670 mg/kg/day (mouse, strain B6C3F1, females, in feed, site: liver, lesion: hepatocellular adenoma + hepatocellular carcinoma + neoplastic nodule, dosed 94 weeks, study length 94 weeks); 5670 mg/kg/day (mouse, strain B6C3F1, females, in feed, site: liver, lesion: hepatocellular carcinoma, dosed 94 weeks, study length 94 weeks); 22900 mg/kg/day (mouse, strain B6C3F1, females, in feed, site: lung, lesion: alveolar/bronchiolar adenoma + alveolar/bronchiolar carcinoma, dosed 94 weeks, study length 94 weeks); 20000 mg/kg/day (inactive) (mouse, strain B6C3F1, males, in feed, site: any site (literature study), lesion: several types, types named in the paper, dosed 94 weeks, study length 94 weeks); 842 mg/kg/day (inactive) (rat, strain Fischer 344, females, in feed, site: any site (literature study), lesion: several types, types named in the paper, dosed 109 weeks, study length 109 weeks). Moreover, the TD50 is 131000 mg/kg/day (rat, strain Fischer 344, females, in feed, site: liver, lesion: hepatocellular adenoma + hepatocellular carcinoma + neoplastic nodule, dosed 109 weeks, study length 109 weeks); 960 mg/kg/day (rat, strain Fischer 344, males, in feed, site: any site (literature study), lesion: several types, types named in the paper, dosed 109 weeks, study length 109 weeks); 5010 mg/kg/day (rat, strain Fischer 344, males, in feed, site: liver, lesion: hepatocellular adenoma + hepatocellular carcinoma + neoplastic nodule, dosed 109 weeks, study length 109 weeks); 2620 mg/kg/day (inactive) (rat, strain Fischer 344, males, in feed, site: pituitary gland, lesion: carcinoma, NOS, dosed 109 weeks, study length 109 weeks).

On to `C=C(C)[C@H]1CC=C(C)C(=O)C1`, for which the carcinogen call is, setting by setting: (mouse, strain B6C3F1, females, by gavage, site: any site (literature study), lesion: several types, types named in the paper, dosed 103 weeks, study length 105 weeks) “negative (inactive)”; (mouse, strain B6C3F1, males, by gavage, site: any site (literature study), lesion: several types, types named in the paper, dosed 103 weeks, study length 105 weeks) “negative (inactive)”. Further, under “mouse, strain B6C3F1, males, by gavage, site: liver, lesion: hepatocellular adenoma + hepatocellular carcinoma + neoplastic nodule, dosed 103 weeks, study length 105 weeks”, the TD50 stood at 63800 mg/kg/day.

Turning to `CCCc1ccc2c(c1)OCO2`, the TD50 is 305 mg/kg/day (mouse, strain B6AKF1, females, oral dosing, site: any site (literature study), lesion: several types, types named in the paper, dosed 81 weeks, study length 81 weeks); 1400 mg/kg/day (mouse, strain B6AKF1, females, oral dosing, site: liver, lesion: angioma, dosed 81 weeks, study length 81 weeks); 739 mg/kg/day (mouse, strain B6AKF1, females, oral dosing, site: lung, lesion: adenoma, dosed 81 weeks, study length 81 weeks); 84.7 mg/kg/day (mouse, strain B6AKF1, females, oral dosing, site: stomach, lesion: papilloma, dosed 81 weeks, study length 81 weeks); 86.6 mg/kg/day (mouse, strain B6AKF1, males, oral dosing, site: any site (literature study), lesion: several types, types named in the paper, dosed 81 weeks, study length 81 weeks); 117 mg/kg/day (mouse, strain B6AKF1, males, oral dosing, site: liver, lesion: hepatoma, dosed 81 weeks, study length 81 weeks). Moreover, the TD50 runs as follows: (mouse, strain B6AKF1, males, oral dosing, site: lung, lesion: adenoma, dosed 81 weeks, study length 81 weeks) 323 mg/kg/day; (mouse, strain B6AKF1, males, oral dosing, site: lung, lesion: several types, types named in the paper, dosed 81 weeks, study length 81 weeks) 448 mg/kg/day; (mouse, strain B6C3F1, females, oral dosing, site: any site (literature study), lesion: several types, types named in the paper, dosed 81 weeks, study length 81 weeks) 170 mg/kg/day; (mouse, strain B6C3F1, females, oral dosing, site: lung, lesion: adenoma, dosed 81 weeks, study length 81 weeks) 230 mg/kg/day; (mouse, strain B6C3F1, males, oral dosing, site: any site (literature study), lesion: several types, types named in the paper, dosed 81 weeks, study length 81 weeks) 107 mg/kg/day; (mouse, strain B6C3F1, males, oral dosing, site: liver, lesion: hepatoma, dosed 81 weeks, study length 81 weeks) 90 mg/kg/day. The TD50 (mouse, strain B6C3F1, males, oral dosing, site: lung, lesion: adenoma, dosed 81 weeks, study length 81 weeks) stood at 358 mg/kg/day and the TD50 (rat, strain Osborne-Mendel, both sexes, in feed, site: esophagus, lesion: several types, types named in the paper, dosed 104 weeks, study length 104 weeks) was 143 mg/kg/day.

Take `C[C@@H]1O[C@@H](OC[C@H]2O[C@@H](Oc3c(-c4ccc(O)c(O)c4)oc4cc(O)cc(O)c4c3=O)[C@H](O)[C@@H](O)[C@@H]2O)[C@H](O)[C@H](O)[C@H]1O`: the TD50 reads like this: (hamster, strain Syrian Golden, females, in feed, site: adrenal gland, lesion: cortical adenoma, dosed 104 weeks, study length 104 weeks) 132000 mg/kg/day (inactive); (hamster, strain Syrian Golden, females, in feed, site: uterus, lesion: leiomyoma, dosed 104 weeks, study length 104 weeks) 140000 mg/kg/day (inactive); (rat, strain ACI, females, in feed, site: adrenal gland, lesion: pheochromocytoma, dosed 121 weeks, study length 121 weeks) 90400 mg/kg/day (inactive); (rat, strain ACI, females, in feed, site: heart, lesion: sarcoma, dosed 121 weeks, study length 121 weeks) 90400 mg/kg/day (inactive); (rat, strain ACI, females, in feed, site: pituitary gland, lesion: adenoma, dosed 77 weeks, study length 77 weeks) 8910 mg/kg/day (inactive); (rat, strain ACI, females, in feed, site: urinary bladder, lesion: papilloma, dosed 77 weeks, study length 77 weeks) 8910 mg/kg/day (inactive). In addition, the TD50 is, setting by setting: (rat, strain ACI, males, in feed, site: adrenal gland, lesion: cortical adenoma, dosed 77 weeks, study length 77 weeks) 5710 mg/kg/day (inactive); (rat, strain ACI, males, in feed, site: colon, lesion: adenoma, dosed 121 weeks, study length 121 weeks) 72300 mg/kg/day (inactive); (rat, strain ACI, males, in feed, site: ileum, lesion: adenoma, dosed 121 weeks, study length 121 weeks) 72300 mg/kg/day (inactive); (rat, strain ACI, males, in feed, site: testis, lesion: interstitial-cell tumor, dosed 77 weeks, study length 77 weeks) 3530 mg/kg/day (inactive); (rat, strain Sprague-Dawley, females, by gavage, site: liver, lesion: hepatocellular carcinoma, dosed 104 weeks, study length 138 weeks) 44800 mg/kg/day (inactive). In addition, the carcinogen call is, setting by setting: (hamster, strain Syrian Golden, males, in feed, site: adrenal gland, lesion: cortical adenoma, dosed 104 weeks, study length 104 weeks) “negative (inactive)”; (hamster, strain Syrian Golden, males, in feed, site: forestomach, lesion: papilloma, dosed 104 weeks, study length 104 weeks) “negative (inactive)”; (rat, strain Sprague-Dawley, males, by gavage, site: liver, lesion: hepatocellular carcinoma, dosed 104 weeks, study length 134 weeks) “negative (inactive)”.

For the compound `C=C(C)C`, the carcinogen call (mouse, strain B6C3F1, females, inhaled, site: any site (literature study), lesion: several types, types named in the paper, dosed 105 weeks, study length 105 weeks) was “negative (inactive)” and the carcinogen call (rat, strain Fischer 344, females, inhaled, site: any site (literature study), lesion: several types, types named in the paper, dosed 104 weeks, study length 104 weeks) is “negative (inactive)”. Moreover, the TD50 is, setting by setting: (mouse, strain B6C3F1, females, inhaled, site: liver, lesion: hepatocellular adenoma + hepatoblastoma + hepatocellular carcinoma, dosed 105 weeks, study length 105 weeks) 47800 mg/kg/day; (mouse, strain B6C3F1, males, inhaled, site: any site (literature study), lesion: several types, types named in the paper, dosed 104 weeks, study length 104 weeks) 8840 mg/kg/day (inactive); (rat, strain Fischer 344, females, inhaled, site: liver, lesion: hepatocellular adenoma + hepatoblastoma + hepatocellular carcinoma, dosed 104 weeks, study length 104 weeks) 30100 mg/kg/day; (rat, strain Fischer 344, males, inhaled, site: thyroid gland, lesion: follicular-cell carcinoma, dosed 104 weeks, study length 104 weeks) 3550 mg/kg/day.
